Source: patent publication US6709681B2, “Acidified nitrite as an antimicrobial agent” (Aberdeen University, priority 1995, dated 2004)
Like-named read-outs stand apart in the source and are kept apart here.

Legend:
[1] = tested on: caries-producing organisms in dental plaque; C albicans; conditions: toothpaste, mouthwash or other orally acceptable vehicle
[2] = 45 minutes after ingestion of 200 mg potassium nitrate solution; fasting mean 114 μM
[3] = tested on: E coli (strain NCTC 10418)
Text: The results shown in FIGS. 2A and 2B are a mean of 20 experiments.
The methods are those as for FIG. 2.

C albicans = tested on: C albicans
Experimental: With reference to FIG. 1 a single colony of C albicans was used to inoculate an overnight culture in Sabouraud's broth. 10 μl of this broth was added to 940 μl of a citrate/phosphate buffered Sabouraud's broth to which was added sodium nitrite (50 μl; final concentration 250 μM) or distilled water as a control. After one hour incubation at 37° C., 10 μl was removed and cultured in 190 μl standard Sabourauds broth with continual agitation (Gallenkamp orbital incubator) in a 96-well microtitre plate at 37° C. Growth was monitored by measurement of optical density at 570 nm at regular time intervals. The results are a mean of 16 separate experiments.
The open bars show the growth of C albicans measured by the optical density method following exposure to acid alone for 1 hour, while the closed bars show growth following exposure to acid and 250 μM sodium nitrite.

Row | Structure (SMILES) | reduction of caries-producing organisms in dental plaque / treatment or prevention of infection with C albicans [1] | salivary nitrite (mean) [2] | effect on E coli ([3]; 250 μM nitrite, above pH4) | growth of E coli compared with control (acid alone) ([3]; 250 μM nitrite, pH 2, 3 and 4) | survival of E coli ([3]; 250 μM nitrite, pH2, one hour) | viability of E coli ([3]; 250 μM nitrite, pH3 and pH4) | toxic effect on E coli ([3]; pH3, 10 μM) | toxic effect on E coli ([3]; pH3, 1 mM) | killing of C albicans (C albicans; 5 nN nitrite, up to pH5) | survival of C albicans (growth by optical density) (C albicans; 250 μgM sodium nitrite, one hour, pH reduced to below 4) | elimination of C albicans (C albicans; pH 1, all concentrations above 250 μM (data not shown))
1 | O=[N+]([O-])O [nitrate] | effective |  |  |  |  |  |  |  |  |  | 
2 | O=[N+]([O-])[O-].[K+] [potassium nitrate] |  | 1030 µM |  |  |  |  |  |  |  |  | 
3 | O=NO [sodium nitrite] | effective |  | no effect | significantly (p<0.05) impaired | eliminates E coli | significantly reduces the viability | discernable effect | killed E coli completely | killed C albicans | incrementally killed C albicans | effective in eliminating C albicans
